The values below come from ChEMBL document CHEMBL4732203, “Synthesis of polyenylpyrrole derivatives with selective growth inhibitory activity against T-cell acute lymphoblastic leukemia cells” (Bioorg Med Chem Lett, 2021).

Assay type in all cases: functional, cell-based
One assay relates to CCRF-CEM. The assay is described as follows: Cytotoxicity against human CCRF-CEM cells assessed as reduction in cell viability incubated for 72 hrs.
The next assay concerns Raji. Description: Cytotoxicity against human Raji cells assessed as reduction in cell viability incubated for 72 hrs.
For a further assay, the system named is HeLa. Description: Cytotoxicity against human HeLa cells assessed as reduction in cell viability incubated for 3 days. The note with it: 72 h.
The subject of a further assay is HSC-3. The assay is described as follows: Cytotoxicity against human HSC-3 cells assessed as reduction in cell viability incubated for 3 days. The note with it: HSC-3, 72 h.

As for `CCOC(=O)/C=C/c1ccc[nH]1`, the IC50 in the assay on CCRF-CEM and with Raji was greater than 10 µM throughout.
On to `CCOC(=O)/C=C/C=C/C=C/C=C/c1ccco1`, for which the IC50 in the assay with CCRF-CEM and with Raji was greater than 10 µM in each case.
`CCOC(=O)/C=C/C=C/C=C/C=C/c1[nH]ccc1Cl`: the IC50 (commonly the concentration at which inhibition is half-maximal) in the assay with HeLa is greater than 10 µM; with HSC-3 it was greater than 10 µM; with CCRF-CEM, 0.27 µM; in the assay with Raji, greater than 10 µM.
Turning to `CCOC(=O)/C=C/C=C/c1nccs1`, the IC50 with CCRF-CEM and in the assay with Raji was greater than 10 µM in each case.
On to `CCOC(=O)/C=C/C=C/C=C/c1nccs1`, for which the IC50 in the assay on CCRF-CEM was 4.5 µM; in the assay on Raji, 4.35 µM.
The like results for `CCOC(=O)/C=C/C=C/C=C/C=C/c1ccc[nH]1` were, in that order, 1.34 µM and 4.09 µM.
The like results for `CCOC(=O)/C=C/C=C/c1ccco1` were, in that order, greater than 10 µM and greater than 10 µM.
The like results for `O=C(/C=C/C=C/C=C/c1ccc[nH]1)OCc1ccccc1` were, in that order, 0.83 µM and greater than 10 µM.
In the case of `O=C(/C=C/C=C/C=C/C=C/c1ccc[nH]1)c1ccccc1`, the IC50 in the assay on CCRF-CEM came out at 0.72 µM; in the assay with Raji it was 5.99 µM.
The like results for `COc1cc(\C(C)=C/C=C/C=C/C=C/c2[nH]ccc2Cl)oc(=O)c1C` were, in that order, 1.76 µM and greater than 10 µM.
Turning to `O=C(/C=C/C=C/C=C/c1ccc[nH]1)c1ccccc1`, the IC50 is 3.07 µM with CCRF-CEM and 9.89 µM in the assay on Raji.
The like results for `CCOC(=O)/C=C/C=C/C=C/C=C/c1cccn1C` were, in that order, greater than 10 µM and greater than 10 µM.
For `CCOC(=O)/C=C/C=C/C=C/C=C/c1nccs1`, the IC50 in the assay with CCRF-CEM and in the assay with Raji was greater than 10 µM throughout.
Turning to `CCOC(=O)/C=C/C=C/C=C/c1ccco1`, the IC50 in the assay on CCRF-CEM and in the assay on Raji was greater than 10 µM each time.
Turning to `O=C(/C=C/C=C/C=C/C=C/c1ccc[nH]1)OCc1ccccc1`, the IC50 in the assay on CCRF-CEM came to 0.19 µM; in the assay on Raji, 1.4 µM.
Regarding `CCOC(=O)/C=C/C=C/C=C/c1ccc[nH]1`, the figures for the IC50 in the assay with CCRF-CEM and in the assay with Raji were 3.67 µM and greater than 10 µM, respectively.
Take `CCOC(=O)/C=C/C=C/C=C/c1[nH]ccc1Cl`: the results for the IC50 in the assay with CCRF-CEM and in the assay on Raji were 2.42 µM and greater than 10 µM, respectively.
On to `CCOC(=O)/C=C/C=C/c1ccc[nH]1`, for which the IC50 with CCRF-CEM and in the assay with Raji was greater than 10 µM throughout.
`CCOC(=O)/C=C/C=C/C=C/C=C/C=C/c1ccc[nH]1`: the values for the IC50 in the assay on CCRF-CEM and in the assay with Raji were 0.45 µM and greater than 10 µM, respectively.
The like results for `O=C(/C=C/C=C/C=C/C=C/c1[nH]ccc1Cl)OCc1ccccc1` were, in that order, 0.28 µM and 6.7 µM.
The like results for `CCOC(=O)/C=C/C=C/c1[nH]ccc1Cl` were, in that order, greater than 10 µM and greater than 10 µM.
The like results for `COc1cc(/C=C/C=C/C=C/C=C/c2[nH]ccc2Cl)oc(=O)c1` [AUXARCONJUGATIN B] were, in that order, 0.51 µM and 5.74 µM.
